Assay [1] relates to sulfotransferases (SULTs) in human liver S9. As to the kind of experiment: Inhibition of hydroxycinnamic acid sulfation by flavonoids and quercetin conjugates in human liver S9. In kind it is biochemical. The procedure: (§1) The incubation mixture, in a final volume of 50 μL, consisted of 100 mM potassium phosphate buffer (pH 7.4), with 100 μM vitamin C, 100 μM PAPS and 1 mM DTT. Human liver S9 and intestinal S9 homogenates were used at 1 mg/mL and 0.4 mg/mL, respectively. The flavonoids were added from a 5 mM stock solution dissolved in DMSO, with final DMSO concentration equalized to 0.2%. Quercetin-3-glucuronide, quercetin-7-glucuronide and quercetin-3′-sulfate were dissolved in water. After a 15 min pre-incubation period, the reaction was initiated by adding 10 μM cinnamic acids and 25 μM dihydrocinnamic acids from a 50 mM stock solution in DMSO. To inhibit hydrolysis of quercetin glucuronides, in some analyses, 5 mM saccharolactone was added. After 30 min incubation in a 37° C. water bath, the reaction was stopped by addition of 10 μL ice-cold acetonitrile containing 500 mM HCl. Controls were treated under identical condition and consisted of samples with 0.2% DMSO (final concentration) added to the buffer. Samples were stored at −70° C. until analysis.
(§2) HPLC analyses were carried out using the Agilent 1200 series liquid chromatography system. For the analysis of caffeic acid, ferulic acid, isoferulic acid, dihydroferulic acid and their conjugates, chromatography was performed with a Zorbax XDB-C18 column (4.6×150 mm, 5 μm). The mobile phase consisted of 20 mM ammonium formate, pH 2.8 (A) and methanol (B). For the analysis of caffeic acid and conjugates, samples were eluted at 1 mL/min with 5% to 25% B in 20 min, followed by 80% B in 2 min and back to 5% B for 3 min. For the analysis of ferulic and isoferulic acid and their conjugates, the gradient was from 10% to 20% B in 10 min, to 60% B in 15 min, then set at 80% B for 2 min and back to 10% B for 3 min, at 1 mL/min. Dihydroferulic acid and conjugates analysis was carried out at 1 mL/min, from 10% to 20% B in 15 min, to 60% B in 10 min, up to 80% B for 2 min and finally to 10% B for 3 min. For dihydrocaffeic acid and conjugates, the analyses were performed with a Zorbax XDB-C18 column (4.6×50 mm, 1.8 μm) with 20 mM ammonium formate, pH 4.5 (A) and methanol (B) as the mobile phase. The gradient started at 3% (B) kept for 15 min, followed by an increase to 40% B in 5 min, and then returned to 3% B for 5 min. Samples were centrifuged and 25 μL of the supernatant were injected into the column. UV-detection carried out at 280 nm and 310 nm using photodiode array detector. Caffeic, ferulic and isoferulic acid were quantified at 310 nm, dihydroferulic acid and dihydrocaffeic acid at 280 nm.

In assay [2] the test system is sulfotransferases (SULTs) in human intestinal S9. The assay is described as follows: Inhibition of hydroxycinnamic acid sulfation by flavonoids in human intestinal S9. In kind it is biochemical. The following applies: human intestinal S9 0.4 mg/mL, 30 min, 37° C. As for the experimental part:
as §1, §2

Assay [3] relates to HepG2 cells. The assay is described as follows: Inhibition of caffeic acid and ferulic acid sulfation in HepG2 cells. The class given is cell-based, human. The following applies: caffeic and ferulic acids 10 μM, 4 h. The procedure: HepG2 cells (ATCC) were routinely cultured in 75 cm^2 cell culture flasks at 37° C. under a humidified 5% CO2/O2 atmosphere. The culture media consisted of Eagle's Minimum Essential Medium (EMEM) media supplemented with 10% fetal bovine serum (Sigma-Aldrich) and 100 U/ml penicillin-streptomycin. All experiments were performed with HepG2 cells between passages 80 to 95. For metabolic studies, HepG2 cells were seeded into 12-well plates at a cell density of 2×10^5 per well. The cell monolayers were allowed to grow over 96 h before they were used for experiments. Hydroxycinnamic acid metabolism experiments were carried out in serum-free media with 100 μM vitamin C and 1.8 mM CaCl2, adjusted to pH 6.5. Cinnamic acids (10 μM) and dihydrocinnamic acids (25 μM) were added from a 50 mM stock solution in DMSO. […] 0.4 mL of hydroxycinnamic acids, with or without the inhibitors, were added to the HepG2 cells and incubated for 4 h at 37° C. The incubation media were then collected, acidified with 1 mM vitamin C and dried under vacuum. The residue was extracted by sonication for 5 min and vortex for 1 min, first with 500 μL acetonitrile, followed by 500 μL methanol. […]
HPLC analyses were carried out using the Agilent 1200 series liquid chromatography system. […] Caffeic, ferulic and isoferulic acid were quantified at 310 nm, dihydroferulic acid and dihydrocaffeic acid at 280 nm.

Setting [4] is: human liver S9 1 mg/mL, 10 μM caffeic acid, 30 min, 37° C., flavonoids, read-out: IC50 for the inhibition of sulfation of Caffeic acid.
The mark [5] stands for this setting: human liver S9 1 mg/mL, 10 μM ferulic acid, 30 min, 37° C., flavonoids, read-out: IC50 for the inhibition of sulfation of Ferulic acid.
Where [6] appears, read: 10 μM caffeic acid, read-out: IC50 for the inhibition of sulfation of Caffeic acid.
Where [7] appears, read: 10 μM ferulic acid, read-out: IC50 for the inhibition of sulfation of Ferulic acid.
The mark [8] stands for this setting: liver S9, 10 μM caffeic acid, quercetin conjugates dissolved in water, read-out: IC50 for the inhibition of sulfation of Caffeic acid.
[9] abbreviates: liver S9, 10 μM ferulic acid, quercetin conjugates dissolved in water, read-out: IC50 for the inhibition of sulfation of Ferulic acid.

The structures appear in SMILES notation. Like-named read-outs stand apart in the source and are kept apart here.

One may read the IC50 as the concentration at which inhibition is half-maximal.

With `Oc1cc(O)c2c(c1)O[C@H](c1ccc(O)c(O)c1)[C@@H](O)C2` [(+)-Catechin], the IC50 in assay [1] (setting [4]) is 4.2 µM; in assay [1] (setting [5]) it was 4.4 µM; in assay [2] (setting [6]), 5.8 µM; in assay [2] (setting [7]), 7 µM.

Take `Oc1cc(O)c2c(c1)O[C@H](c1ccc(O)c(O)c1)[C@H](O)C2` [(−)-Epicatechin]: the IC50 in assay [1] (setting [4]) was found to be 7.4 µM; in assay [1] (setting [5]), 7.3 µM; in assay [2] (setting [6]) it was 7.6 µM; in assay [2] (setting [7]), 11 µM.

For `O=c1cc(-c2ccc(O)cc2)oc2cc(O)cc(O)c12` [Apigenin], the IC50 in assay [1] (setting [4]) came out at 0.46 µM; in assay [1] (setting [5]), 0.88 µM; in assay [2] (setting [6]), 0.96 µM; in assay [2] (setting [7]) it was 2.3 µM.

On to `O=c1c(-c2ccc(O)cc2)coc2cc(O)ccc12` [Daidzein], for which the IC50 in assay [1] (setting [4]) came out at 0.65 µM; in assay [1] (setting [5]), 0.62 µM; in assay [2] (setting [6]), 0.72 µM; in assay [2] (setting [7]), 2.3 µM.

In the case of `O=c1c(-c2ccc(O)cc2)coc2cc(O)cc(O)c12` [Genistein], the half-maximal inhibitory concentration (IC50) in assay [1] (setting [4]) came out at 0.59 µM; in assay [1] (setting [5]), 1 µM; in assay [2] (setting [6]) it was 0.77 µM; in assay [2] (setting [7]), 1.5 µM.

With `COc1ccc([C@@H]2CC(=O)c3c(O)cc(O)cc3O2)cc1O` [Hesperetin], the IC50 in assay [1] (setting [4]) turned out to be 4.3 µM; in assay [1] (setting [5]), 5.3 µM; in assay [2] (setting [6]), 3.5 µM; in assay [2] (setting [7]), 5.1 µM.

As to `COc1cc(-c2oc3cc(O)cc(O)c3c(=O)c2O)ccc1O` [Isorhamnetin], the IC50 came out at 2 µM in assay [1] (setting [4]), 3.7 µM in assay [1] (setting [5]), 4.4 µM in assay [2] (setting [6]) and 4.7 µM in assay [2] (setting [7]).

Turning to `O=c1c(O)c(-c2ccc(O)cc2)oc2cc(O)cc(O)c12` [Kaempferol], the IC50 stood at 0.92 µM in assay [1] (setting [4]), 3.9 µM in assay [1] (setting [5]), 2.5 µM in assay [2] (setting [6]) and 3.8 µM in assay [2] (setting [7]).

As for `O=c1cc(-c2ccc(O)c(O)c2)oc2cc(O)cc(O)c12` [Luteolin], the IC50 was found to be 0.08 µM in assay [1] (setting [4]), 0.53 µM in assay [1] (setting [5]), 1.3 µM in assay [2] (setting [6]) and 3 µM in assay [2] (setting [7]). Moreover, in assay [3], the “Inhibitory effect on hydroxycinnamic acids sulfation” value is on record as “inhibitory effect”.

Consider `O=C(CCc1ccc(O)cc1)c1c(O)cc(O)cc1O` [Phloretin], for which the IC50 in assay [1] (setting [4]) was 0.99 µM; in assay [1] (setting [5]) it was 1 µM; in assay [2] (setting [6]), 0.84 µM; in assay [2] (setting [7]), 2.3 µM.

With `O=C(O)[C@H]1O[C@@H](Oc2c(-c3ccc(O)c(O)c3)oc3cc(O)cc(O)c3c2=O)[C@H](O)[C@@H](O)[C@@H]1O` [Quercetin-3-glucuronide], the IC50 came to 11 µM in assay [1] (setting [8]) and 12 µM in assay [1] (setting [9]).

Take `O=c1c(O)c(-c2ccc(O)c(OS(=O)(=O)O)c2)oc2cc(O)cc(O)c12` [Quercetin-3′-sulfate]: the IC50 in assay [1] (setting [8]) was 6.6 µM; in assay [1] (setting [9]) it was 6.7 µM.

On to `O=C(O)[C@H]1O[C@@H](Oc2cc(O)c3c(=O)c(O)c(-c4ccc(O)c(O)c4)oc3c2)[C@H](O)[C@@H](O)[C@@H]1O` [Quercetin-7-glucuronide], for which the IC50 in assay [1] (setting [8]) came out at 9.6 µM; in assay [1] (setting [9]), 8 µM.

For `O=c1c(O)c(-c2ccc(O)c(O)c2)oc2cc(O)cc(O)c12` [Quercetin], the IC50 in assay [1] (setting [4]) came out at 0.41 µM; in assay [1] (setting [5]) it was 0.64 µM; in assay [2] (setting [6]), 4.2 µM; in assay [2] (setting [7]), 5.2 µM. Also, the “Inhibition of sulfation of hydroxycinnamic acid, ranking in words” value in assay [1] (liver S9) is “most effective inhibitors”. The “Inhibitory effect on hydroxycinnamic acids sulfation” value in assay [3] is recorded as “inhibitory effect”.

The values are drawn from patent US20140329904A1, “INCREASING THE BIOAVAILABILITY OF HYDROXYCINNAMIC ACIDS” (NESTEC S.A., priority 2011, published 2014).
